# According to PubChem BioAssay (NCI):
#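 Cells were grown in 96-well plates and exposed to each compound for 48 hours at five concentrations; endpoints were interpolated linearly between bracketing concentrations, or set to the highest concentration if not reached. The concentration for 50% growth inhibition is given as GI50. The concentration for full growth arrest is given as TGI.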
# Legend:
# Experiment in all cases: DTP human tumour cell line panel, 48 h
# [1] = tested on: 786-0 renal
# [2] = tested on: DU-145 prostate
# [3] = tested on: UACC-62 melanoma
# [4] = tested on: K-562 leukemia
# [5] = tested on: SR leukemia
# [6] = tested on: NCI-H522 lung
# [7] = tested on: MDA-MB-231 breast
# [8] = tested on: OVCAR-3 ovarian
# [9] = tested on: NCI-H460 lung
# [10] = tested on: COLO 205 colon
# [11] = tested on: OVCAR-8 ovarian
# [12] = tested on: HT29 colon
# [13] = tested on: HCC-2998 colon
# [14] = tested on: HS 578T breast
# [15] = tested on: NCI-H23 lung
# [16] = tested on: SK-MEL-5 melanoma
# [17] = tested on: CAKI-1 renal
# [18] = tested on: RPMI-8226 leukemia
# [19] = tested on: LOX IMVI melanoma
# [20] = tested on: HOP-62 NSCLC
# [21] = tested on: MOLT-4 leukemia
# [22] = tested on: SNB-19 CNS
# [23] = tested on: SK-MEL-28 melanoma
# [24] = tested on: OVCAR-5 ovarian
# [25] = tested on: UO-31 renal
# [26] = tested on: HL-60(TB) leukemia
# [27] = tested on: SW-620 colon
# [28] = tested on: IGROV1 ovarian
# [29] = tested on: TK-10 renal
compound,measurement,setting,value
COc1ccc(OC(=O)O[C@H]2[C@H](O[C@H]3[C@@H](O)COC(O[C@H]4C[C@H]5[C@@H]6CC=C7C[C@@H](O)CC[C@]7(C)[C@H]6CC[C@]5(C)[C@H]4[C@H](C)C(=O)CCC(C)C)[C@@H]3OC(C)=O)OC[C@@H](O)[C@@H]2O)cc1 (some centres not stated),GI50,[1],< 10 nM
same,TGI,[1],3810 nM
same,GI50,[2],3530 nM
same,TGI,[2],22700 nM
same,GI50,[3],17.1 nM
same,TGI,[3],51.6 nM
same,GI50,[4],< 10 nM
same,TGI,[4],10600 nM
same,GI50,[5],10.2 nM
same,TGI,[5],21400 nM
same,GI50,[6],165 nM
same,TGI,[6],2100 nM
same,GI50,[7],961 nM
same,TGI,[7],18100 nM
same,GI50,[8],10700 nM
same,TGI,[8],24500 nM
same,GI50,[9],52.4 nM
same,TGI,[9],3330 nM
same,GI50,[10],164 nM
same,TGI,[10],1160 nM
same,GI50,[11],12700 nM
same,TGI,[11],50600 nM
same,GI50,[12],541 nM
same,TGI,[12],18100 nM
same,GI50,[13],4910 nM
same,TGI,[13],21400 nM
same,GI50,[14],< 10 nM
same,TGI,[14],185 nM
same,GI50,[15],966 nM
same,TGI,[15],19100 nM
same,GI50,[16],34.7 nM
same,TGI,[16],176 nM
same,GI50,[17],28.1 nM
same,TGI,[17],1630 nM
same,GI50,[18],< 10 nM
same,TGI,[18],32.1 nM
same,GI50,[19],26.5 nM
same,TGI,[19],177 nM
same,GI50,[20],56.9 nM
same,TGI,[20],11400 nM
same,GI50,[21],15.3 nM
same,GI50,[22],85.7 nM
same,TGI,[22],6560 nM
same,GI50,[23],18.5 nM
same,TGI,[23],155 nM
same,GI50,[24],890 nM
same,TGI,[24],15900 nM
same,GI50,[25],87.4 nM
same,TGI,[25],995 nM
same,GI50,[26],68.6 nM
same,TGI,[26],18700 nM
same,GI50,[27],29.5 nM
same,TGI,[27],1130 nM
same,GI50,[28],335 nM
same,TGI,[28],18200 nM
same,GI50,[29],2240 nM
same,TGI,[29],21100 nM
